Patent US6051605A, “Method of treating psychosis and schizophrenia” (priority 1999, dated 2000)
Structures can show the parent of a compound that is named as a salt.

These molecules were tested against T1, human recombinant dopamine D4.2 receptor (Homo sapiens, UniProt P21917, DEL265-296) (assay: Receptor binding assay, D4.2 dopamine receptor ([3H]spiperone competition)).
T1 construct: expressed in transfected cells; membranes
T1 sequence (P21917 with tags, fused parts or gaps DEL265-296): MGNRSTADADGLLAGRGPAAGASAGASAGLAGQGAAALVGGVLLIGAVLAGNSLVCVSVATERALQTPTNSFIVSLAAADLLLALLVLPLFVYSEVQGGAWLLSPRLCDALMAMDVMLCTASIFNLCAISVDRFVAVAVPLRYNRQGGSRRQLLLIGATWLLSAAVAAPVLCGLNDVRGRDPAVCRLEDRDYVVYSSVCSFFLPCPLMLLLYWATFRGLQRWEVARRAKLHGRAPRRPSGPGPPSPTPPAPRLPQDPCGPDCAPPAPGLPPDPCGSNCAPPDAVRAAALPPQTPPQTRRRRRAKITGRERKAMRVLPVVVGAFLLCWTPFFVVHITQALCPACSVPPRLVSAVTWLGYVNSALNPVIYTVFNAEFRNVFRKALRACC

Structure (SMILES) | Ki
COc1ccc(OCCCNCCCOc2ccc(OC)cc2)cc1 [Example 1q, Bis[3-(4-methoxy-phenoxy)-propyl]-amine hydrochloride] | 1330 nM
Cc1ccc(OCCNCCCOc2ccccc2)cc1 [Example 2, (3-Phenoxy-propyl)-(2-p-tolyloxy-ethyl)-amine hydrochloride] | 0.2 nM
O=[N+]([O-])c1ccc(OCCNCCCOc2ccccc2)cc1 [Example 2a, [2-(4-Nitro-phenoxy)-ethyl]-(3-phenoxy-propyl)-amine hydrochloride] | 4.4 nM
CC(C)(C)c1ccc(OCCNCCCOc2ccccc2)cc1 [Example 2b, [2-(4-tert-Butyl-phenoxy)-ethyl]-(3-phenoxy-propyl)-amine hydrochloride] | 20.9 nM
CCOc1ccc(OCCNCCCOc2ccccc2)cc1 [Example 2c, [2-(4-Ethoxy-phenoxy)-ethyl]-(3-phenoxy-propyl)-amine hydrochloride] | 11.9 nM
c1ccc(OCCCNCCOc2ccc(-c3ccccc3)cc2)cc1 [Example 2e, [2-(Biphenyl-4-yloxy)-ethyl]-(3-phenoxy-propyl)-amine hydrochloride] | 383 nM
Cc1ccc(OCCCNCCOc2ccc(C)cc2)cc1 [Example 3, (2-p-Tolyloxy-ethyl)-(3-p-tolyloxy-propyl)-amine hydrochloride] | 11.4 nM
Cc1ccc(OCCNCCCOc2ccc(Br)cc2)cc1 [Example 3b, [3-(4-Bromo-phenoxy)-propyl]-(2-p-tolyloxy-ethyl)-amine hydrochloride] | 26.9 nM
Cc1ccc(OCCCNCCOc2ccc(Cl)cc2)cc1 [Example 3e, [2-(4-Chloro-phenoxy)-ethyl]-(3-p-tolyloxy-propyl)-amine hydrochloride] | 5.6 nM
Cc1ccc(OCCCNCCOc2ccccc2)cc1 [Example 3f, (2-Phenoxy-ethyl)-(3-p-tolyloxy-propyl)-amine hydrochloride] | 2.7 nM
Clc1ccc(OCCNCCCOc2ccc(Br)cc2)cc1 [Example 3g, [3-(4-Bromo-phenoxy)-propyl]-[2-(4-chloro-phenoxy)-ethyl]-amine hydrochloride] | 37.8 nM
Fc1ccc(OCCCNCCOc2ccccc2)cc1 [Example 4, [3-(4-Fluoro-phenoxy)-propyl]-(2-phenoxy-ethyl)-amine hydrochloride] | 1.2 nM
Brc1ccc(OCCCNCCCOc2ccc(Br)cc2)cc1 [Example 4a, Bis-[3-(4-bromo-phenoxy)-propyl]-amine hydrochloride] | 45.8 nM
Cc1ccc(OCCCNCCCOc2ccc(C)cc2)cc1 [Example 4b, Bis(3-p-tolyloxy-propyl)-amine hydrochloride] | 136 nM
Cc1ccc(OCCNCCCOc2ccc(F)cc2)cc1 [Example 4c, [3-(4-Fluoro-phenoxy)-propyl]-(2-p-tolyloxy-ethyl)-amine hydrochloride] | 0.96 nM
Cc1ccc(SCCNCCCOc2ccccc2)cc1 [Example 4d, (3-Phenoxy-propyl)-(2-p-tolylsulfanyl-ethyl)-amine hydrochloride] | 30 nM

Structure (SMILES) | Ki
Clc1ccc(SCCNCCCOc2ccccc2)cc1 [Example 4e, [2-(4-Chloro-phenylsulfanyl)-ethyl]-(3-phenoxy-propyl)-amine hydrochloride] | 33.1 nM
Clc1ccc(OCCNCCCSc2ccccc2)cc1 [Example 4f, [2-(4-Chloro-phenoxy)-ethyl]-(3-phenylsulfanyl-propyl)-amine hydrochloride] | 1.7 nM
Cc1ccc(OCCNCCCSc2ccccc2)cc1 [Example 4g, (3-Phenylsulfanyl-propyl)-(2-p-tolyloxy-ethyl)-amine hydrochloride] | 1.2 nM
Fc1ccc(OCCCNCCOc2ccc(Cl)cc2)cc1 [Example 4h, [2-(4-Chloro-phenoxy)-ethyl]-[3-(4-fluoro-phenoxy)-propyl]-amine hydrochloride] | 0.84 nM
Cc1ccc(CCCNCCCOc2ccccc2)cc1 [Example 5, (3-Phenoxy-propyl)-(3-p-tolyl-propyl)-amine hydrochloride] | 4.7 nM
COC(=O)c1ccc(OCCNCCCOc2ccccc2)cc1 [Example 6a, 4-[2-(3-Phenoxy-propylamino)-ethoxy]-benzoic acid methyl ester] | 10.9 nM
N#Cc1ccc(OCCNCCCOc2ccccc2)cc1 [Example 6b, 4-[2-(3-Phenoxy-propylamino)-ethoxy]-benzonitrile] | 10.7 nM
Cc1ccc(OCCNCCOc2ccccc2)cc1 [Example 6d, (2-Phenoxy-ethyl)-(2-p-tolyloxy-ethyl)-amine hydrochloride] | 103 nM
Cc1ccc(OCCNCCOc2ccc(C)cc2)cc1 [Example 6e, Bis-(2-p-tolyloxy-ethyl)-amine hydrochloride] | 74.9 nM
COc1ccc(OCCNCCCOc2ccccc2)cc1 [Example 9d, [2-(4-Methoxy-phenoxy)-ethyl]-(3-phenoxy-propyl)-amine hydrochloride] | 5.4 nM
Oc1ccc(OCCNCCCOc2ccccc2)cc1 [Example 11, 4-[2-(3-Phenoxy-propylamino)-ethoxy]-phenol hydrobromide] | 3.1 nM
O=C(O)c1ccc(OCCNCCCOc2ccccc2)cc1 [Example 15, 4-[2-(3-Phenoxy-propylamino)-ethoxy]-benzoic acid hydrochloride] | > 1000 nM
Cc1ccc(OCCNCC(O)COc2ccccc2)cc1 (stereo not shown) [Example 16g, 1-Phenoxy-3-(2-p-tolyloxy-ethylamino)-propan-2-ol] | 1.3 nM
OC(CNCCOc1ccc(Cl)cc1)COc1ccccc1 (stereo not shown) [Example 16h, 1-[2-(4-Chloro-phenoxy)-ethylamino]-3-phenoxy-propan-2-ol] | 2.1 nM
Brc1ccc(OCCCNCCOc2ccccc2)cc1 [Example 16i, [3-(4-Bromo-phenoxy)-propyl]-(2-phenoxy-ethyl)-amine hydrochloride] | 6.1 nM
